The values below come from patent publication US20200390755A1, “COMPOUND FOR TREATING NERVOUS SYSTEM DISEASES AND USE THEREOF” (SHAANXI MICOT TECHNOLOGY CO., LTD., priority 2018, published 2020).

The test system of assay [1] is rats with permanent cerebral ischemia. Description: Cerebral infarction volume by TTC staining in rats with permanent cerebral ischemia. Format: in vivo, SD rats. As to conditions: 0.078 mg/kg intravenous, after 7 days of ischemia. As to the method:
(§1) SD rats, male, about 220-250 g, were provided by the Experimental Animal Center of Medical College of Xi'an Jiaotong University. Rats were randomly divided into groups of 14 animals/group. The experiment included a sham group, a model group, a positive control Edaravone group and test compound groups 1-5.12 hours before the operation, the rats were fasted and were free to drink water, and then used for the modeling method of middle cerebral artery occlusion with thread plug. The rats were fixed on a wooden board after anesthesia, the common carotid artery was ligated proximally, the external carotid artery was ligated distally, and the main internal carotid artery into skull was retained. A ligature line was reserved at the bifurcation of the internal carotid artery for temporarily clamping the distal end of the internal carotid artery using an arterial clip. A 3-0 nylon thread with a length of 5 cm and a spherical shape with a diameter of 0.3 mm at the tip was inserted into the common carotid artery through a small incision at the bifurcation. The arterial clamp was loosened, and the thread plug was slowly advanced to 18˜20 mm. When there was resistance, the progress of the thread was stopped. At this time, the nylon thread plug entered the middle artery and blocked the blood flow, and then the ischemic phase began. The skin was sutured. In the sham operation group, the same procedure was executed, except that no thread plug was inserted.
(§2) Administering was performed at 0 h, 3 h, 6 h and 12 h after ischemia, and then administering was performed once a day for 7 consecutive days. The test compound was prepared into a 4 mg/mL solution with 1% CMC-Na solution and administered by gavage. The edaravone group received an intravenous dose of 0.078 mg/kg.
3) Percentage of cerebral infarction volume after 7 days of ischemia: TTC staining was used to observe the infarct area.
The rats in each group were sacrificed by spinal dislocation […]. The brain tissue was quickly peeled off and placed in the refrigerator at −20° C. to freeze to an appropriate hardness to remove the olfactory bulb, cerebellum and low brain stem. Continuous coronary slices were performed at 1 mm intervals, to obtain a total of 5 slices. The slices were placed in 0.5% triphenyltetrazolium chloride (TTC) in phosphate buffer (pH=7.4) and incubated in a 37° C. incubator without light for 15 min, and then fixed in paraformaldehyde and observed (fixed time should be within 24 h). The normal brain tissue is rosy red, and infarcted brain tissue is pale. After taking the picture, the slice was scanned to save the image. The area of cerebral infarction and the total area of slices were calculated using Image J processing software.
Cerebral infarction volume (%)=(volume of the contralateral hemisphere of the operation−volume of the uninfarcted portion of the hemisphere of the occlusion)/volume of the contralateral hemisphere of the operation×100%
(§3) (2) Statistical analysis of data: SPSS18.0 statistical software was used for statistical analysis and the data of each group was expressed as the mean standard error (x±SEM). One-way ANOVA and multiple comparisons between groups were used to compare the averages of measurement data among multiple groups. Rank score test was used for behavioral grading data, and Kaplan-Meier method was used for mortality. P<0.05 was considered statistically significant.

The test system is the same in assay [2]. As to the kind of experiment: Neurobehavioral scoring in rats with permanent cerebral ischemia (MCAO thread plug). The following applies: 0.078 mg/kg intravenous. Format: in vivo, SD rats. The procedure:
as §1, §2
2) The rats were lifted at its tail about 1 foot off the ground to observe the condition of both forelimbs. The rats were placed on a level ground and pushed on both shoulders to observe the difference in resistance on both sides. The rats were placed on the ground to observe the walking. The assessment was conducted using a five-grade four-point scoring method (0 to 4 points). The higher the score, the more severe the neurobehavioral damage.
0 point: the behavior is completely normal;
1 point: when the rat is lifted at its tail off the ground, the forelimb on the opposite side of the operation rotates and folds inwardly.
2 points: when the rat is placed on a level ground and pushed on both shoulders to observe the difference in resistance on both sides, the resistance on the opposite side of the operation reduces;
3 points: when the rat is placed on the ground to the walking, it circles around the opposite side of the operation;
4 points: The injury is so severe that the rat is unable to move independently.
as §3

Assay [3] concerns AKT signaling pathway. As to the kind of experiment: Western blotting of p-AKT and t-AKT in primary cortical neuron cells. Format: cell-based, mouse. As to conditions: 10 min at 37° C., Vehicle = 100, n = 3. The procedure: (§4) N171-82Q WT male mice were mated with female B6C3F1/J hybrid mice. B6C3F1/J mice 18 days after pregnancy were anesthetized with isoflurane and dissected to remove embryos, which were then placed in a 10 cm Petri dish containing Leibovitz's buffer. The head of the embryo was cut off, and the brain was peeled off to obtain the whole mouse brain, which was then placed in a new 10 cm Petri dish containing Leibovitz's buffer. The neurocortex of the brain was separated and placed in a 15 mL centrifuge tube containing 3 mL Leibovitz's buffer. The centrifuge tube was centrifuged at 1000 rpm for 1 minute, and the Leibovitz's buffer was gently removed from the centrifuge tube, and then 750 μL of 0.25% trypsin-EDTA and 75 μL of 0.1% DNase (2000 U/mL) were added to digest at 37° C. for 15 min. 750 μL of DMEM medium containing 5% FBS was added to stop the digestion. The cells were mixed well, and centrifuged at 1000 rpm for 5 minutes. Trypins/DNase mixture was removed, and 750 μL of Neurobasal medium (B-27, Glutamax, P/S) was added. The cells were mixed by gently pipetting with a pipette for 30 times. The cell suspension was filtered with a 40 µm filter and transferred to another new 50 mL centrifuge tube. 10 μL of the cell suspension was added to 90 μL of DMEM (diluted 10 times), and 10 μL of the liquid mixture was placed on a hemocytometer so that the suspension filled between the cover slip and the counting plate for counting. The cells in the four large grids of the plate were counted, wherein for the cells across the line, only the cells on the left and upper side lines were counted. The following formulas were used:
(§5) Number of cells/mL=total number of cells in the four large grids/4×10^4/mL
(§6) Total number of cells/mL=total number of cells in the four large grids/4×10^4/mL×dilution factor.
(§7) After counting, the cells were diluted with Neurobasal selection medium so that 1 mL of Neurobasal culture medium contained 0.5×10^6 cells.
(§8) 200 μL of PDL solution previously heated in a 37° C. water bath was added to each well of a 6-well plate, and incubated at 37° C. overnight to allow PDL to evenly coat the well plate. The PDL solution was absorbed and the plate was washed twice with PBS. Before use, the PBS remaining on the plate was absorbed and the cover was opened to dry the plate in a super clean bench. 2 mL of cell suspension was added to each well (37° C., 5% CO2), and the cells were cultured until adherence. The culture medium was replaced and the culture continued for 3 days, and then the growth status of neurons was observed. Every other 3 days, half of the medium was removed and replaced with fresh complete medium. The culture continued until the primary cortical neuron cells mature (usually mature on the 14th day of culture).
(§9) After the primary cortical neuron cells have matured, appropriate amount of freshly prepared culture medium was added until final volume in each well was 2 mL. The experiment included a blank control group (Vehicle), a positive control group BDNF (10 ng/mL), a control compound group (500 nM), and 6 test compound groups (500 nM). Three repeats were set for each dose. After incubating at 37° C. for 10 min, the culture solution was discarded and the cells were washed with pre-chilled PBS, and then 40 μL of pre-chilled lysate (RIPA buffer 10 mL and protease and phosphatase inhibitor 100 μL) was added to each well for lysis on ice for 30 min. After lysis, the cell was crushed by ultrasonic cell crusher, centrifuged at 14000 rpm for 20 min at 4° C. The supernatant was transferred to a new 1.5 mL centrifuge tube to extract protein. Western blotting experiments were used to detect the protein levels of (A) p-TrkB and t-TrkB; (B) p-AKT and t-AKT.
(§10) The software Sigmaplot 13.0 was used for statistical analysis of the data, and the data of each group was expressed as mean±standard error (x±SEM). […]
A general note: Immunoblotting shows a protein as a band on a membrane.

In assay [4] the target is T1, TrkB receptor (Mus musculus, UniProt P15209).
T1 construct: The culture continued until the primary cortical neuron cells mature; endogenous in cells; host or cells: primary cortical neurons from E18 mouse embryos (N171-82Q WT male x B6C3F1/J female)
T1 sequence (P15209 32-821): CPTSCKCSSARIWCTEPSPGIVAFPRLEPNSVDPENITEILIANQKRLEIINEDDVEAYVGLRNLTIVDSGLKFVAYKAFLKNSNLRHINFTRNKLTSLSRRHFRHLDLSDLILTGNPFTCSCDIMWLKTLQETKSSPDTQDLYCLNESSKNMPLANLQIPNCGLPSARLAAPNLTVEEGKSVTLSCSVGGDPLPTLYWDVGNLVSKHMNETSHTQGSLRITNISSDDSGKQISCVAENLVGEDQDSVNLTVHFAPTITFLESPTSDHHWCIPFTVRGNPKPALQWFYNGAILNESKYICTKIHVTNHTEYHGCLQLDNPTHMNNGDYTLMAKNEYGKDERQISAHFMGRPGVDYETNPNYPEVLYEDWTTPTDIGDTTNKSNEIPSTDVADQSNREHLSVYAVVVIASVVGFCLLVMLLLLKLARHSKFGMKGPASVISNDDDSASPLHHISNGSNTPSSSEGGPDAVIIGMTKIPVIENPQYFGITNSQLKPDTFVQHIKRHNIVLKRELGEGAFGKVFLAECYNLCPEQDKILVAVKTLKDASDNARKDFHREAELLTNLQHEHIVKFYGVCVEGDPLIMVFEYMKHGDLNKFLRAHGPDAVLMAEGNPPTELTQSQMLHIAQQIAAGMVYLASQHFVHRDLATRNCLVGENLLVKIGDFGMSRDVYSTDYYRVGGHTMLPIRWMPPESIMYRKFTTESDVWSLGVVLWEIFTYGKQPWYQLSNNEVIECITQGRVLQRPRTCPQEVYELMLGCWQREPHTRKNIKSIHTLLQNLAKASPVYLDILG
Description: Western blotting of p-TrkB and t-TrkB in primary cortical neuron cells. Format: cell-based. As to conditions: for Relative intensity of p-TrkB/t-TrkB protein: 10 min at 37° C., Vehicle = 100, n = 3. As to the method: as §4, §5, §6, §7, §8, §9, §10

For assay [5], the system named is Phospho-Akt S473. Description: ELISA analysis of Phospho-Akt S473 in primary cortical neuron cells. Format: cell-based, mouse. As to conditions: 10 min at 37° C. The procedure: The primary cortical neuron cells were cultured in the same way as in Example 21, and after maturity, appropriate amount of freshly prepared culture medium was added until final volume in each well was 2 mL. The experiment included a blank control group (Vehicle), a positive control group BDNF (10 ng/mL), a control compound group (500 nM), and 6 test compound groups (500 nM). Three repeats were set for each dose. After incubating at 37° C. for 10 min, the culture solution was discarded and the cells were washed with pre-chilled PBS, and then 40 μL of pre-chilled lysate (RIPA buffer 10 mL and protease and phosphatase inhibitor 100 μL) was added to each well for lysis on ice for 30 min. After lysis, the cell was crushed by ultrasonic cell crusher, centrifuged at 14000 rpm for 20 min at 4° C. The supernatant was transferred to a new 1.5 mL centrifuge tube to extract protein. The p-Akt ELISA experiment quantitatively detected the intracellular p-Akt protein level.
A series of p-Akt standard solutions with different concentrations were prepared, and the absorbance value was measured to make a standard curve. Phospho-Akt1 (Ser473) sandwich ELISA kit was purchased from Cell Signaling Technology (catalog number 7160). The antibody was coated in a 96-well plate at 4° C. overnight and was washed. The coated plate was blocked with 2% bovine serum albumin (BSA), and after sufficient washing, 100 μL of sample diluent (supplied in the kit) was added to each well to dilute the extracted protein. The plate was incubated overnight at 4° C. After washing 4 times with 200 μL of washing buffer (supplied in the kit), 100 μL/well of detection antibody was added and the plate was incubated at 37° C. for 1 hour. After 4 washes, 100 μL of HRP-conjugated secondary antibody (supplied in the kit) was added and the plate was incubated at 37° C. for 30 minutes. After the final wash, 100 μL of TMB substrate was added to each well and the plate was incubated at 37° C. for 10 minutes. TMB was use as a substrate to detect the signal, since TMB can be oxidized to produce a blue solution. The reaction was stopped by adding 100 μL/well stop solution, and the test result can remain stable within one hour after the stop of the reaction. The value of each well at 450 nm and 650 nm was detected using a microplate reader. The optical density (OD) was determined by subtracting the reading at 650 nm (disturbance from the solution itself) from the reading at 450 nm. According to the OD value corresponding to the standard curve, the p-Akt concentration in each well was obtained.
the data of each group was expressed as mean standard error (x±SEM). The ratio of the detection results of each positive control group (BNDF), control compound group (the same control compound as in Example 21) and each test compound group to the blank control group was used as an indicator to compare the p-Akt test results of the positive control group, control compound group, and each test compound group. One-way ANOVA and LSD post-hoc test were used to compare the measurement data among multiple groups, and P<0.05 was considered statistically significant.
A general note: In an ELISA, binding on a coated surface is turned into a signal by an enzyme label.

For the molecule `CC1=NN(c2ccccc2)C(=O)C1` [Edaravone, reference compound], in assay [1], the “Volume percentage of cerebral infarction” value was 33.50 ± 7.21%. In addition, the “Neurobehavioral score (0 to 4 points)” value in assay [2] (6 h after ischemia) is 2 ± 0.18; in assay [2] (1 d after ischemia), 2.36 ± 0.29; in assay [2] (2 d after ischemia) it was 2.89 ± 0.31; in assay [2] (3 d after ischemia), 2.38 ± 0.37; in assay [2] (4 d after ischemia) it was 2 ± 0.33; in assay [2] (5 d after ischemia), 2.14 ± 0.46. Besides, the entries for the “Neurobehavioral score (0 to 4 points)” value in assay [2] (6 d after ischemia) and in assay [2] (7 d after ischemia) were 2 ± 0.31 and 1.67 ± 0.21, respectively.

For the molecule `[2H]c1c(-c2ccc(N3CCCCC3)cc2)oc2c(O)c(O)ccc2c1=O` [Example 7, 3-deutero-7,8-dihydroxy-2-(4-(piperidin-1-yl)phenyl)-4H-chromen-4-one], in assay [3] (500 nM), the “Relative intensity of p-AKT/t-AKT protein” value was 220.514 ± 3.476. For the same molecule, the “Relative intensity of p-TrkB/t-TrkB protein” value in assay [4] (500 nM) turned out to be 218.156 ± 12.556. Further, the “Relative content of p-Akt protein (ELISA, ratio to blank control group)” value in assay [5] (500 nM) was 218.33±2.31%.

For the molecule `O=c1cc(-c2ccc(N3CCOCC3)cc2)oc2c(O)c(O)ccc12` [Control compound, reference compound], the “Relative intensity of p-AKT/t-AKT protein” value in assay [3] (500 nM) was determined as 147.748 ± 4.832. The “Relative intensity of p-TrkB/t-TrkB protein” value in assay [4] (500 nM) was found to be 138.890 ± 15.547. Moreover, in assay [5] (500 nM), the “Relative content of p-Akt protein (ELISA, ratio to blank control group)” value amounted to 138.33±2.08%.

B1: BDNF: Brain-derived neurotrophic factor, positive control, purchased from Peprotech (protein, UniProt P23560 19-247, looked up)
Neurotrophic factor BDNF …: APMKEANIRGQGGLAYPGVRTHGTLESVNGPKAGSRGLTSLADTFEHVIEELLDEDQKVRPNEENNKDADLYTSRVMLSSQVPLEPPLLFLLEEYKNYLDAANMSMRVRRHSDPARRGELSVCDSISEWVTAADKKTAVDMSGGTVTVLEKVPVSKGQLKQYFYETKCNPMGYTKEGCRGIDKRHWNSQCRTTQSYVRALTMDSKKRIGWRFIRIDTSCVCTLTIKRGR
As to B1, the “Relative intensity of p-AKT/t-AKT protein” value in assay [3] (BDNF 10 ng/mL) is on record as 229.306 ± 3.912. Moreover, in assay [4] (BDNF 10 ng/mL), the “Increase of relative intensity of p-TrkB compared with Vehicle group” value is reported as 2.74 times and the “Relative intensity of p-TrkB/t-TrkB protein” value was 274.260 ± 8.047. Further, the “Relative content of p-Akt protein (ELISA, ratio to blank control group)” value in assay [5] (BDNF 10 ng/mL) was 231%.
